Consider 16 compounds from ChEMBL document CHEMBL5634124, “Discovery and optimization of indirubin derivatives as novel ferroptosis inducers for the treatment of colon cancer” (Eur J Med Chem, 2023).

This test deals with HCT-116. The experiment in a line: Cytotoxicity against human HCT-116 cells assessed as inhibition of cell viability incubated for 48 hrs by CCK8 assay. The test is classed as functional, cell-based. Conditions: HCT-116, 48 h. (In general: Formazan colour is commonly taken as a measure of viable cells.)

As to `C=CC(=O)CCCCCC(=O)c1ccc2c(c1)C(=O)/C(=C1/C(=O)Nc3ccccc31)N2`, the IC50 – broadly, the concentration that gives 50% inhibition – was 13.1 µM.
As for `O=C(CCl)CCCC(=O)c1ccc2c(c1)C(=O)/C(=C1/C(=O)Nc3ccccc31)N2`, the IC50 is 3.96 µM.
For `C#CC(=O)CCCC(=O)c1ccc2c(c1)C(=O)/C(=C1/C(=O)Nc3ccccc31)N2`, the IC50 was found to be 7.4 µM.
In the case of `O=C1Nc2ccccc2/C1=C1/Nc2ccc(C(=O)N3CCN(C(=O)CCl)CC3)cc2C1=O`, the half-inhibitory concentration (IC50) is 2.31 µM.
As to `O=C1Nc2ccccc2/C1=C1/Nc2ccc(C(=O)Nc3ccc(N4CCN(C(=O)CCl)CC4)cc3)cc2C1=O`, the IC50 amounted to 7.54 µM.
Take `C#CC(=O)CCCCC(=O)c1ccc2c(c1)C(=O)/C(=C1/C(=O)Nc3ccccc31)N2`: the IC50 came to 3 µM.
Turning to `C#CC(=O)N1CCC(c2ccc(NC(=O)c3ccc4c(c3)C(=O)/C(=C3/C(=O)Nc5ccccc53)N4)cc2)CC1`, the IC50 is over 20 µM.
For the compound `O=C1Nc2ccccc2/C1=C1/Nc2ccc(C(=O)NCCC3CCN(C(=O)CCl)CC3)cc2C1=O`, the IC50 stood at 0.72 µM.
For `O=C1Nc2ccccc2/C1=C1/Nc2ccc(C(=O)NN3CCN(C(=O)CCl)CC3)cc2C1=O` the value was 1.44 µM; for `C#CC(=O)CCCCCC(=O)c1ccc2c(c1)C(=O)/C(=C1/C(=O)Nc3ccccc31)N2`, 3.53 µM.
With `C#CC(=O)N1CCC(CCNC(=O)c2ccc3c(c2)C(=O)/C(=C2/C(=O)Nc4ccccc42)N3)CC1`, the half-maximal inhibitory concentration (IC50) worked out at 1.85 µM.
With `O=C(CCl)CCCCCC(=O)c1ccc2c(c1)C(=O)/C(=C1/C(=O)Nc3ccccc31)N2`, the half-maximal inhibitory concentration (IC50) was 2.18 µM.
For `C#CC(=O)N1CCN(C(=O)c2ccc3c(c2)C(=O)/C(=C2/C(=O)Nc4ccccc42)N3)CC1`, the IC50 is 6.39 µM.
The figure for `C=CC(=O)CCCCC(=O)c1ccc2c(c1)C(=O)/C(=C1/C(=O)Nc3ccccc31)N2` is 14.1 µM; for `O=C1Nc2ccccc2/C1=C1/Nc2ccc(C(=O)Nc3ccc(C4CCN(C(=O)CCl)CC4)cc3)cc2C1=O` it is over 20 µM.
With `O=C1Nc2ccccc2/C1=C1/Nc2ccc(C(=O)NCCN3CCN(C(=O)CCl)CC3)cc2C1=O`, the IC50 was 2.27 µM.
